Experimental data: patent US7534766B2, “Glucuronide metabolites and epimers thereof of tigecycline” (Wyeth, priority 2004, dated 2009)

Experiments:
[1] = Estimated concentrations in rabbit serum by LC/MS (SRM) after intravenous tigecycline; type: in vivo, New Zealand White rabbit
Method: Three female New Zealand White rabbits, weighing between 3.9 and 4.3 kg at the time of dosing, were used. Animals were given food and water ad libitum. Animals were individually housed in standard cages. Rabbits were dosed at Wyeth Research, Chazy, N.Y. and samples shipped frozen to the Wyeth Research Biotransformation Department, Collegeville, Pa.
Standard curves for tigecycline, M3 and M9 were prepared in rabbit serum. Standard curves were prepared by adding the internal standard and synthetic tigecycline and metabolite standards to control plasma. Standard curve samples were prepared with tigecycline concentrations of 0, 10, 20, 50, 100, 200, 500 and 1000 ng/mL, with the linear range being […]. For 9-aminominocycline (M3), the concentrations were 0, 1, 5, 10, 20, 50, 100 and 200 ng/mL, with the linear range being 10 to 200 ng/mL. For N-acetyl-9-aminominocycline (M9), the concentrations were 1.6, 3.2, 6.4, 16, 32, 64 and 96 ng/mL, with the linear range being from 3.2 to 96 ng/mL. These samples were processed and analyzed as described above.
The column temperature was 25° C. The flow rate was 0.2 mL/min. […] Gradient 1 was used for metabolite identification (qualitative analysis).
Micromass MassLynx (version 4.0, Waters Corp.) was used for analysis of LC/MS data. The concentrations of tigecycline, 9-aminominocycline (M3) and N-acetyl-9-aminominocycline (M9) in serum were calculated based on the analyte to internal standard peak area ratios in the samples as compared to the standard curves generated in rabbit serum.

[2] = Safety and tolerability of intravenous tigecycline in healthy male volunteers; type: in vivo, human; conditions: IV 100-mg dose, five 50-mg doses, single 50-mg [14C]tigecycline dose
Excerpt: The clinical protocol called for twelve subjects.

[3] = LC/MS characterization of tigecycline related compounds in human serum, urine and feces; type: in vivo; conditions: human, after single 50 mg IV [14C]tigecycline dose
Excerpt: Three HPLC conditions were used during LC/MS analysis in this study. LC/MS Condition 1 was used for the majority of sample analyses for metabolite characterization and to isolate metabolite M3a from urine. LC/MS Condition 2 was used on selected samples to increase the retention time of glucuronide metabolites and for a co-chromatography experiment to confirm the identity of metabolites M8 and M9. LC/MS Condition 3 was used to analyze the polar metabolite M3a isolated from human urine.
The UV detector was set to monitor 340-360 nm. […] The flow rate was 0.2 mL/min. […] The linear mobile phase gradient is shown below.
Separations were accomplished on a Phenomenex Luna C18(2) column (250×2.0 mm, 5 μm) with a Uniguard C18 guard column (10×2 mm) (ThermoHypersil-Keystone). The flow rate was 0.2 mL/min. […] Mobile phase A was 0.02% trifluoroacetic acid in water (v/v) and mobile phase B was 0.02% trifluoroacetic acid in acetonitrile (v/v). The linear mobile phase gradient is shown below.
A Micromass Quattro Ultima triple quadrupole mass spectrometer (Waters Corp.) was operated in the positive ionization mode. LC/MS analysis with electrospray ionization (ESI) was conducted using a Z-spray interface. ESI-MS analysis of individual fractions from selected samples was conducted by direct infusion into a nanospray interface. Settings for the mass spectrometer are listed below.
Urine and feces samples were analyzed for tigecycline metabolites by LC/MS/MS analysis for precursors of product ions characteristic of tigecycline. Additionally, potential metabolites of tigecycline were searched for in the LC/MS data based upon results from previous studies in animals and humans.
Serum extracts were analyzed for tigecycline and selected metabolites by LC/MS/MS in the selected reaction monitoring (SRM) mode (LC/SRM) to reduce interference from endogenous components. […] The following tigecycline related components were monitored.

[4] = Mass balance: percent of [14C]tigecycline dose excreted in human urine and feces
Method: The concentration of tigecycline-related components in serum, urine and feces was calculated based on the total radioactivity concentrations reported elsewhere. These concentrations were converted to ng-tigecycline equivalents using the specific activity of the dose (1.00 μCi/mg). Using this value, the concentrations of the specific components were then estimated based on the distribution of radioactivity in the radiochromatograms.
An open-label, inpatient, multiple-dose tigecycline, single-dose [^14C]tigecycline metabolic disposition and mass balance study was performed in six healthy male volunteers. The clinical protocol called for twelve subjects. Of these twelve, six received the radioactive dose (subjects 1, 4, 5, 6, 7, and 8 with subject 8 later dropping out of the study.) Eligible subjects were selected based on inclusion/exclusion criteria, medical history, physical examination and additional procedures outlined in the study protocol. Each subject received a 100 mg loading dose on the morning of Day 1, followed by a 50 mg maintenance dose every 12 hours for an additional 5 doses. On the morning of study Day 4, six subjects received a single 50 mg dose of [^14C]tigecycline (50 μCi). Each tigecycline dose was administered via a 30-minute intravenous infusion.
Serum samples were collected for metabolite profiling prior to tigecycline dosing and 1, 4, 8, 24 and 48 hours following the [^14C]-labeled dose. For metabolite profiling, urine samples were collected at 0-4, 4-8, 8-24 and 24-48 hours and fecal samples were collected up to 48 hours following the [^14C]-labeled dose. Serum and urine samples, and fecal homogenates were shipped on dry ice to the Biotransformation Division of Drug Safety and Metabolism, Wyeth Research, Collegeville, Pa. The details of the sample collection and sample storage are described in the mass balance portion of the study. The 24-48 hour urine and fecal samples for subject #6 were incomplete since the subject withdrew from the study. While samples from this subject were used for metabolite profiling, the samples were not included in the mass balance calculations.

[5] = Stability of [14C]tigecycline during extraction from control human fecal homogenates; type: in vitro ADME
Excerpt: Similar results were observed following the extraction of [^14C]tigecycline from control fecal homogenates. In these samples, [^14C]tigecycline accounted for 94% of the radioactivity prior to extraction and 68% following the extraction. There was a corresponding increase in the epimer of tigecycline, which represented 4% of the radioactivity prior to extraction and 23% following the extraction. […] Other minor products represented less than 1% of the radioactivity prior to the extraction and 4% following the extraction.
The stability of [^14C]tigecycline during the extraction process was determined in control human fecal homogenates spiked with [^14C]tigecycline at 5 μg/g of homogenate. […] Samples were extracted and analyzed by HPLC with radioactivity flow detection.

Row | SMILES | concentration at 0.5 h ([1]; 0.5 hr after 4 mg/kg IV tigecycline, pooled serum, female New Zealand White rabbits) [ng/mL] | concentration at 2 h ([1]; female, New Zealand White, 2 hr after 4 mg/kg IV tigecycline, pooled serum) [ng/mL] | concentration at 6 h ([1]; female, New Zealand White, 6 hr after 4 mg/kg IV tigecycline, pooled serum) [ng/mL] | concentration at 1 h ([1]; female, New Zealand White, serum, at 1 hour, 4 mg/kg IV tigecycline) [ng/mL] | adverse event frequency: dyspepsia [2] [%] | adverse event frequency: injection site inflammation [2] [%] | adverse event frequency: nausea [2] [%] | adverse event frequency: vomiting [2] [%] | safety and tolerability [2] | Matrix in which the compound was observed [3] | Percentage of Dose (mean ± standard deviation) excreted ([4]; Feces (0–48 hours), n = 5) [%] | Percentage of Dose (mean ± standard deviation) excreted ([4]; Total Urine (0-48 hours), n = 5, ND = not detected) [%] | Percentage of Dose (mean ± standard deviation) excreted ([4]; Total urine + feces (0–48 hours), n = 5) [%] | Percentage of Dose (mean ± standard deviation) excreted ([4]; Urine 0–4 hours, ND = not detected) [%] | Percentage of Dose (mean ± standard deviation) excreted ([4]; Urine 4–8 hours, ND = not detected) [%] | Percentage of Dose (mean ± standard deviation) excreted ([4]; Urine 8–24 hours, ND = not detected) [%] | Percentage of Dose (mean ± standard deviation) excreted ([4]; Urine 24–48 hours, n = 5, ND = not detected) [%] | increase in percent of the radioactivity, control fecal homogenates ([5]; during the extraction) [%] | percent of the radioactivity, control fecal homogenates ([5]; following the extraction) [%] | percent of the radioactivity, control fecal homogenates ([5]; prior to extraction, 5 μg/g of homogenate) [%]
1 | CN(C)c1cc(NC(=O)CNC(C)(C)C)c(O)c2c1C[C@H]1C[C@H]3[C@H](N(C)C)C(O)=C(C(N)=O)C(=O)[C@@]3(O)C(O)=C1C2=O [Tigecycline] | 2020 | 1040 | 287 | 2020 | 17 | 17 | 75 | 50 | generally safe and well tolerated | S, U, F | 9.9 ± 7.9 | 14.8 ± 2.9 | 24.7 ± 8.7 | 7.1 ± 0.9 | 2.4 ± 1.1 | 3.3 ± 1.1 | 1.7 ± 0.7 | – | – | –
2 | CC(C)(C)NCC(=O)O [Metabolite M3a, t-butylaminoacetic acid] | – | – | – | – | – | – | – | – | – | S, U, F | – | – | – | – | – | – | – | 4 | 5 | 1
